Results on three compounds are retold here after US11208412B2 (DAEGU-GYEONGBUK MEDICAL INNOVATION FOUNDATION, priority 2017, dated 2021).

What all share (experiment): Kinase selectivity, DiscoverX scanMAX Kinase assay panel (% control)
Common to all, as to assay type: binding

Experiment [1] has as its target T1, kinases of the scanMAX Kinase assay panel (Homo sapiens, UniProt P00519, Y253F).
T1 construct: purchased DiscoverX Co. (contract measurement) scanMAX Kinase assay panel
To be noted: ABL1(Y253F)-phosphorylated; 1 uM. The gist of the method: (§1)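 Single-point screen, 1 uM cpd in DMSO. % ctrl = (cpd − pos ctrl)/(neg ctrl − pos ctrl)×100; pos ctrl = 0%, DMSO neg ctrl = 100%. Hit cutoff <35%.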

The target of experiment [2] is T2, kinases of the scanMAX Kinase assay panel (Homo sapiens, UniProt P27448).
T2 construct: purchased DiscoverX Co. (contract measurement) scanMAX Kinase assay panel
T2 sequence (P27448 whole entry): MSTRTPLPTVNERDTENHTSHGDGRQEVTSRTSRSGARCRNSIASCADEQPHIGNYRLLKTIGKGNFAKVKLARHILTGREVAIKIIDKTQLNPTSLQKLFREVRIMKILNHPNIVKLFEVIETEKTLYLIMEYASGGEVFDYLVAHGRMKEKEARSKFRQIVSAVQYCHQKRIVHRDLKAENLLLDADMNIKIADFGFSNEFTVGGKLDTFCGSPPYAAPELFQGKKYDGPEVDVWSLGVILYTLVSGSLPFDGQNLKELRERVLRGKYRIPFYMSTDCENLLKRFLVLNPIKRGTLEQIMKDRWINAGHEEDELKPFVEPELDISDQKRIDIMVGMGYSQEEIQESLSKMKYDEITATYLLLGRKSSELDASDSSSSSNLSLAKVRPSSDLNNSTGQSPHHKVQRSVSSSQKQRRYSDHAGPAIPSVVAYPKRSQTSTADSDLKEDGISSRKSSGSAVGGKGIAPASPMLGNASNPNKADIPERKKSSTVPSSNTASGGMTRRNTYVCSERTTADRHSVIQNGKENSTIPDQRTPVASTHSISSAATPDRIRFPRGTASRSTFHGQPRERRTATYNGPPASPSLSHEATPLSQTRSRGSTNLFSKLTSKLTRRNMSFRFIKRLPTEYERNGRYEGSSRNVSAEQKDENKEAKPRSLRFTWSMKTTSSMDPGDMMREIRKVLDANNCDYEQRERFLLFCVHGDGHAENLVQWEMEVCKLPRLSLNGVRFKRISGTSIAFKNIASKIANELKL
To be noted: MARK3; 1 uM. The gist of the method:
as §1

Experiment [3] deals with T3, kinases of the scanMAX Kinase assay panel (Homo sapiens, UniProt P32298).
T3 construct: purchased DiscoverX Co. (contract measurement) scanMAX Kinase assay panel
T3 sequence (P32298 whole entry): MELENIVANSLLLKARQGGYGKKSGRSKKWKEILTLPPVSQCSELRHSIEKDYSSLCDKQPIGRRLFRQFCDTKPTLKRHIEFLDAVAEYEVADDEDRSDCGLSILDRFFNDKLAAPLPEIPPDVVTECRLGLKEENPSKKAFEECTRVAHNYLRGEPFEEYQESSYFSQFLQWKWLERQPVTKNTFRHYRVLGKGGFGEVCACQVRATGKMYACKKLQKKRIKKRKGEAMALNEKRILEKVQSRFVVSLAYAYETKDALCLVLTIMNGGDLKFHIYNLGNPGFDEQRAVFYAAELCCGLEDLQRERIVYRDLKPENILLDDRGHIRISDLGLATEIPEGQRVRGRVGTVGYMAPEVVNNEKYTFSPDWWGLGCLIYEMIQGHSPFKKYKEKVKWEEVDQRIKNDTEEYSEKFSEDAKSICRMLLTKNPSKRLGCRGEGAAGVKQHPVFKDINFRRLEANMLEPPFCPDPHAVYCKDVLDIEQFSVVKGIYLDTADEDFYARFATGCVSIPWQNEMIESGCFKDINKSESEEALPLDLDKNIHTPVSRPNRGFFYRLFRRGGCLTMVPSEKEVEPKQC
To be noted: GRK4; 1 uM. In outline:
as §1

Experiment [4] deals with T4, kinases of the scanMAX Kinase assay panel (Homo sapiens, UniProt P37023).
T4 construct: purchased DiscoverX Co. (contract measurement) scanMAX Kinase assay panel
T4 sequence (P37023 22-503): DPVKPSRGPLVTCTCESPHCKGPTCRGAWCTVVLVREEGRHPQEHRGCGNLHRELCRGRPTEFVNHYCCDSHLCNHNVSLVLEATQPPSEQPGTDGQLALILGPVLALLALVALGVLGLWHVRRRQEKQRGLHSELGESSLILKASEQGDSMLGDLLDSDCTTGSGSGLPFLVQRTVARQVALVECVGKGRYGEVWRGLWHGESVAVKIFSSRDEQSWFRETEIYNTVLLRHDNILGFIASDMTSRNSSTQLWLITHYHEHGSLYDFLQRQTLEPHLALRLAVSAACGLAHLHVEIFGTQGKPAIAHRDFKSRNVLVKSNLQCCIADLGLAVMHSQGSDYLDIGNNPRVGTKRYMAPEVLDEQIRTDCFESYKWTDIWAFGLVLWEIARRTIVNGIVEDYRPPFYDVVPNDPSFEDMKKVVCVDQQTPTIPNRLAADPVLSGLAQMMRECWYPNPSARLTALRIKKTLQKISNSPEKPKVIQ
To be noted: ACVRL1; 1 uM. The gist of the method:
as §1

Experiment [5] has as its target T5, kinases of the scanMAX Kinase assay panel (Homo sapiens, UniProt P49674).
T5 construct: purchased DiscoverX Co. (contract measurement) scanMAX Kinase assay panel
The conditions noted are these: CSNK1E; 1 uM. The gist of the method: as §1

For experiment [6], the target named is T6, kinases of the scanMAX Kinase assay panel (Homo sapiens, UniProt P49840).
T6 construct: purchased DiscoverX Co. (contract measurement) scanMAX Kinase assay panel
T6 sequence (P49840 whole entry): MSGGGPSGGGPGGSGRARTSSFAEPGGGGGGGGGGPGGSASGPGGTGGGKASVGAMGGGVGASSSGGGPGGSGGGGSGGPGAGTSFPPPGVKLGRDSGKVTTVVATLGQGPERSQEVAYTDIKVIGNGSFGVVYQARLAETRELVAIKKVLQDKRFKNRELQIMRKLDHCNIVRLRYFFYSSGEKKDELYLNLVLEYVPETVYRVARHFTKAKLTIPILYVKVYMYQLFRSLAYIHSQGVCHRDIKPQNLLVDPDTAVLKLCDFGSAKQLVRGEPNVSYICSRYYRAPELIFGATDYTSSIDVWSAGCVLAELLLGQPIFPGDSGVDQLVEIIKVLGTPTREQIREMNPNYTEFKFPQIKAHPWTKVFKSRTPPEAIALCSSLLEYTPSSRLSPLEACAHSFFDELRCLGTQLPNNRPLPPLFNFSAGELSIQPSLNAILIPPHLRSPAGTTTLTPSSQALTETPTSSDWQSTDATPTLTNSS
The conditions noted are these: GSK3A; 1 uM. In outline: as §1

Experiment [7] concerns the target T7, kinases of the scanMAX Kinase assay panel (Homo sapiens, UniProt Q14680).
T7 construct: purchased DiscoverX Co. (contract measurement) scanMAX Kinase assay panel
The conditions noted are these: MELK; 1 uM. The gist of the method:
as §1

In experiment [8] the target is T8, kinases of the scanMAX Kinase assay panel (Homo sapiens, UniProt Q16512).
T8 construct: purchased DiscoverX Co. (contract measurement) scanMAX Kinase assay panel
T8 sequence (Q16512 whole entry): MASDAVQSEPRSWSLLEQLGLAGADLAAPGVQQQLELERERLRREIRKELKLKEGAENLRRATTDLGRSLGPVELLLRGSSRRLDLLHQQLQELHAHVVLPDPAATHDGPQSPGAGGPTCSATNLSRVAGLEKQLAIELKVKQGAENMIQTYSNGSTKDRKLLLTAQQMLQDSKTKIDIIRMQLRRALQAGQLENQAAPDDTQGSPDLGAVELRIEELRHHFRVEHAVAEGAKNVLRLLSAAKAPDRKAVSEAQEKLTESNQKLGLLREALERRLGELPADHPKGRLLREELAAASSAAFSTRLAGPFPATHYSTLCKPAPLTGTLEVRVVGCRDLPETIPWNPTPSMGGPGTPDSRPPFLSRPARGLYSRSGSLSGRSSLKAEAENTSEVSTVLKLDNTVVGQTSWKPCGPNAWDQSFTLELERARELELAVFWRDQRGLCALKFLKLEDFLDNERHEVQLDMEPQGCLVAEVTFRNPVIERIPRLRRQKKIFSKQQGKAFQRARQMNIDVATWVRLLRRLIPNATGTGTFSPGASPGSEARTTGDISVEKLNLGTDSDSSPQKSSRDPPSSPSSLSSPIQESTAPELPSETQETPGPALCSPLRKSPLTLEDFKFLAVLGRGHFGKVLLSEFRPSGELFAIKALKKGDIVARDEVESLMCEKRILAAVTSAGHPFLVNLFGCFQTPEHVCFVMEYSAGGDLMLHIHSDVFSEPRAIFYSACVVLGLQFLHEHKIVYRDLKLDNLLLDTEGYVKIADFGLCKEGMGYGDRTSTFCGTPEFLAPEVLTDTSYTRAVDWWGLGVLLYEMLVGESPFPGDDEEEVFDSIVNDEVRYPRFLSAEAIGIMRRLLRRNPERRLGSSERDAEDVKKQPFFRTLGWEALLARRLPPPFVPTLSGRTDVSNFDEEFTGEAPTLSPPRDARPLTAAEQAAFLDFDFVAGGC
To be noted: PKN1; 1 uM. In outline: as §1

Experiment [9] has as its target T9, kinases of the scanMAX Kinase assay panel (Homo sapiens, UniProt Q7L7X3).
T9 construct: purchased DiscoverX Co. (contract measurement) scanMAX Kinase assay panel
T9 sequence (Q7L7X3 1-1001): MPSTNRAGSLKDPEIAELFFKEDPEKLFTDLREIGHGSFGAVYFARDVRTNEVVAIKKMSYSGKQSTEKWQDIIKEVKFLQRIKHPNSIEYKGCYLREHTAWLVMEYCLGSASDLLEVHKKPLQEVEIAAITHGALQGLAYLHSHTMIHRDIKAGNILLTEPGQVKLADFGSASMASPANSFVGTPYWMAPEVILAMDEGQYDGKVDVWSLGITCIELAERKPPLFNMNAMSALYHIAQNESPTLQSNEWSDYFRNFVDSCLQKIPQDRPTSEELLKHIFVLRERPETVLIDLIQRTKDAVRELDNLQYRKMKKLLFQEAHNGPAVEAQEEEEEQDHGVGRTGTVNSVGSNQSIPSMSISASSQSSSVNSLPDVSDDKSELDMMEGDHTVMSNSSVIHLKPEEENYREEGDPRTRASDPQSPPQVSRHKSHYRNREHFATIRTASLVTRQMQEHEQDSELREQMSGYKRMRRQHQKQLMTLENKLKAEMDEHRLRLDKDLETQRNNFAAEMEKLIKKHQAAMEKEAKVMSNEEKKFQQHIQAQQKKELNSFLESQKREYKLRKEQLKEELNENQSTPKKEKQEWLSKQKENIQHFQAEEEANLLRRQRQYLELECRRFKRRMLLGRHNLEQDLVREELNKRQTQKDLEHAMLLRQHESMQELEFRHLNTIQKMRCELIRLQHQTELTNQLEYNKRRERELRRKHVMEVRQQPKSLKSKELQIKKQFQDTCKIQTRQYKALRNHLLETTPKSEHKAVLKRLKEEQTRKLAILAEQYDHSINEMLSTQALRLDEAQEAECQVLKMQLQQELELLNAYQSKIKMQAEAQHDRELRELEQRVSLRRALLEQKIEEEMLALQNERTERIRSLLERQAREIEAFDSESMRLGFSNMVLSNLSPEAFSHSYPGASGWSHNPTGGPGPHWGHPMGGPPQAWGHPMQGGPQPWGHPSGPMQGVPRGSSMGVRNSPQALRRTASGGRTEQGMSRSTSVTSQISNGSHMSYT
The conditions noted are these: kinase TAOK1; 1 uM in DMSO. In outline:
as §1

The target of experiment [10] is T10, kinases of the scanMAX Kinase assay panel (Homo sapiens, UniProt Q9BRS2).
T10 construct: purchased DiscoverX Co. (contract measurement) scanMAX Kinase assay panel
T10 sequence (Q9BRS2 1-568): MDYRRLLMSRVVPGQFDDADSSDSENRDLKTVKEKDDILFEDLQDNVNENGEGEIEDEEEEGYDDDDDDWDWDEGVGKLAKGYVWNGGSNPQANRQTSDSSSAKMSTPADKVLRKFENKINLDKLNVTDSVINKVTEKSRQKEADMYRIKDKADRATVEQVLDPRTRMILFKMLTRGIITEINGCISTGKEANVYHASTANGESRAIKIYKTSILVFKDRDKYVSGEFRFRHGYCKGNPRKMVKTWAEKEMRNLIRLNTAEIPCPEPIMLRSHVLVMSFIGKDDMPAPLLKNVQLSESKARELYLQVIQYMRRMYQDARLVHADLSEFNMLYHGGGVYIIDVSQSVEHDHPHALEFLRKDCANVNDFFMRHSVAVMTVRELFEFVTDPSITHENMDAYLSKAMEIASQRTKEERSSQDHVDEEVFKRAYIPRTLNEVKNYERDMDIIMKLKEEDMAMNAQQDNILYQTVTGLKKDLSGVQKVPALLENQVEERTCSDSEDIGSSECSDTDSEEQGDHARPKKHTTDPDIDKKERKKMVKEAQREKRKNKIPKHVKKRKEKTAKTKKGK
To be noted: kinase RIOK1; 1 uM in DMSO. In outline:
as §1

T5 sequence (P49674 whole entry): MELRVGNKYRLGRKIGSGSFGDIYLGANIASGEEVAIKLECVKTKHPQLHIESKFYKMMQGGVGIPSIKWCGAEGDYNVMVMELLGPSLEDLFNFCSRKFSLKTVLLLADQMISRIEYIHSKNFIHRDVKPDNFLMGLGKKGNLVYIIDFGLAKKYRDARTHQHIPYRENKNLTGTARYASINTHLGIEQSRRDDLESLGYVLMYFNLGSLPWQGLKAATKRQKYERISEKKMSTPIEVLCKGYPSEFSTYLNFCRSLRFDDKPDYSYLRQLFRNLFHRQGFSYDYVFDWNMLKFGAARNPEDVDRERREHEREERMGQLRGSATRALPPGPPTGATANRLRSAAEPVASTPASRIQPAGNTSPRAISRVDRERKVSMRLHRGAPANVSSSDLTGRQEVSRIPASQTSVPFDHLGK
T7 sequence (Q14680 whole entry): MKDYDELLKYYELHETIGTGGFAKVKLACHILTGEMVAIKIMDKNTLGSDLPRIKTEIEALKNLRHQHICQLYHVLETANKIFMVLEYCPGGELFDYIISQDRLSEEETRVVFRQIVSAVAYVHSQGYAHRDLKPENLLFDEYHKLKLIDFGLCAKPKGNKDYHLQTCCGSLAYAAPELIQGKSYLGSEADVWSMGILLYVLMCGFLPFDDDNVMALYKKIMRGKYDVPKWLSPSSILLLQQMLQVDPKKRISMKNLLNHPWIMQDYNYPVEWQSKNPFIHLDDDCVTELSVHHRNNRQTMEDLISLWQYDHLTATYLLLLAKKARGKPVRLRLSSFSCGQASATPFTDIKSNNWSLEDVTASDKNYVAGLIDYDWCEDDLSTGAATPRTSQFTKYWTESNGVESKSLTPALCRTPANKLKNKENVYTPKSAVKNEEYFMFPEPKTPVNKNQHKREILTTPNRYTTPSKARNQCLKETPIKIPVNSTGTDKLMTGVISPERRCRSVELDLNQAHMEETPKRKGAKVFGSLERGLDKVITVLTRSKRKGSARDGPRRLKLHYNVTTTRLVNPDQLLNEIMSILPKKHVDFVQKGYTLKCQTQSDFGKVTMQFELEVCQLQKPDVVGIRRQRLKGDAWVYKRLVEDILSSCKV

As for `CNc1nc(Nc2ccc(C(=O)N3CCOCC3)cc2OC)nc2[nH]cc(C#N)c12` [Example 1, 2-((2-methoxy-4-(morpholine-4-carbonyl)phenyl)amino)-4-(methylamino)-7H-pyrrolo[2,3-d]pyrimidine-5-carbonitrile], the remaining binding at 1 µM came out at 97% in [1]; 100% in [2]; 92% in experiment [3]; 88% in experiment [4]; 12% in experiment [5]; 100% in experiment [6]. Also, the remaining binding at 1 µM is 78% in experiment [7], 100% in experiment [8], 73% in [9] and 100% in [10].

On to `CC1(Nc2nc(Nc3cnn([C@H]4CCN(C5COC5)C[C@@H]4F)c3Cl)nc3[nH]cc(C#N)c23)CC1` [Example 52, 2-((5-chloro-1-((3S,4S)-3-fluoro-1-(oxetane-3-yl)piperidine-4-yl)-1H-pyrazole-4-yl)amino)((1-methylcyclopropyl)amino)-7H-pyrrolo[2,3-d]pyrimidine-5-carbonitrile], for which the remaining binding at 1 µM in [1] was 1%; in [2], 29%; in experiment [3] it was 1.6%; in experiment [4], 100%; in experiment [5], 0.15%; in experiment [6], 12%. The remaining binding at 1 µM in experiment [7] came to 6.3%; in experiment [8], 67%; in experiment [9], 6.5%; in [10], 0.7%.

Turning to `CCNc1nc(Nc2ccc(C(=O)N3CCC(N4CCOCC4)CC3)cc2OC)nc2[nH]cc(C(F)(F)F)c12` [Example 104, (4-((4-(ethylamino)-5-(trifluoromethyl)-7H-pyrrolo[2,3-d]pyrimidine-2-yl)amino)-3-methoxyphenyl)(4-morpholinopiperidine-1-yl)methanone], the remaining binding at 1 µM is 86% in experiment [1]; 86% in [2]; 100% in experiment [3]; 97% in [4]; 4.2% in experiment [5]; 100% in [6]. Besides, the remaining binding at 1 µM was determined as 79% in experiment [7], 95% in [8], 85% in [9] and 100% in experiment [10].
